Assay results published in patent publication US9526757B2, “Peptides that inhibit the interaction between ASF1 and histones, and use thereof” (COMMISSARIAT A L'ENERGIE ATOMIQUE ET AUX ENERGIES …, priority 2011, dated 2016).
Entries after “also recorded” stand apart in the source; their conditions may differ. Where two headings read alike, the source gives them in different places. Where no end group is shown, it is not given here.

How the values were obtained:
[1] = biological target: T1, Asf1 1-156 (Homo sapiens, UniProt Q9Y294); assay: Calorimetry (ITC) of the interaction of peptides with Asf1 1-156; assay type: binding; conditions: for affinity for Asf1 compared with peptide i5: optimized sequences of i5; for binding to Asf1 (in words): control peptide mutated on three key residues
T1 construct: made in house
Experimental: FIG. 1: ITC curves of the interaction Asf1 1-156 (30 μM in A, 10 μM in B and C) with peptide i1 (A), i4 (B) and i5 (C). The peptide concentration used for this experiment is 0.5 mM for i1, and 0.16 mM for i4 and i5.
Human Asf1a and b proteins and the conserved N-terminal domain (1-156) of each of the isoforms were cloned into the vector peTM30. The unlabeled and ^15N and ^13C/^15N labeled recombinant proteins were purified according to the protocol of Mousson et al. (2004, Journal of Biomolecular NMR, 29(3): 413-414). The peptides were either produced by chemical synthesis ([…]), or cloned after gene synthesis ([…]) in the vector Gateway pDest 17 (Invitrogen), then purified according to the protocol of Mousson et al. (2005, Proc. Natl. Sci. USA, 102(17): p. 5975-5980).
All calorimetry experiments were carried out in 50 mM Tris buffer pH 7.4 at 5° C., unless otherwise indicated. Peptides were introduced in the syringe at a concentration of […] and Asf1 was added to the cuvette at a concentration of 30 μM or 10 μM. Calorimetry tests were also conducted at 25° C. or in 50 mM Tris buffer, 150 mM NaCl, pH 7.4 to obtain more detailed information on the characteristics of the interactions studied.

[2] = system: U2OS cells; assay: Toxicity test on U2OS cells transduced with peptides in the presence of pyrene butyrate; assay type: cell-based, human; conditions: 24 hours after transduction
Experimental: To optimize the internalization of the peptide, the transduction was performed in the presence of pyrene butyrate, according to the method proposed by Takeuchi et al. (ACS CHEMICAL BIOLOGY, 2006. 1(5): p. 299-303). […] RRP5-i1 is the peptide of SEQ ID NO: 60. RRP5-i5 is the peptide of SEQ ID NO: 66. This correlation between the affinity of the peptide for Asf1 and the induced cell toxicity was confirmed for another cell type (HeLa cells) and by using another protocol to measure cell survival, the MTT assay (FIG. 10).
To test the phenotypes induced by the peptide, a newly developed protocol for the “Cell Penetrating TAT” was used. The peptides were dissolved in PBS buffer containing […] and incubated with U2OS (or HeLa) cells for 4 minutes. Cells were then washed three times with PBS buffer, then taken up in culture medium containing fetal calf serum. Cell death was analyzed by FACS 24 to 48 hours later by propidium iodide incorporation or by an MTT assay (3-(4,5-dimethylthiazol-2-yl)-2,5-diphenyl tetrazolium bromide). (Mosmann, T. J. Immunol. Methods 65: 55-63, 1983).

[3] = system: U2OS cells; assay: Cell penetration test of FITC-labelled peptides by flow cytometry; assay type: cell-based, human; conditions: FITC label, 1 μM, 1 hour, FIG. 5
Experimental: The capacity of the peptide i42V (SEQ ID NO: 47) coupled either to the sequence TAT (peptide TAT-i42V, SEQ ID NO: 58) or to the sequence (RRP)5 (peptide RRP5-i42V, SEQ ID NO 59) was measured using these peptides coupled to an FITC label. The mean fluorescence of the cells was analyzed by flow cytometry (FIG. 5).
U2OS cells were incubated with culture medium supplemented with fluorescent peptide at a final concentration of 1 μM for 1 hour, then washed with PBS buffer and detached by addition of trypsin, washed with PBS buffer, then analyzed by flow cytometry (FACS).

[4] = biological target: T2, Asf1-H3-H4 interaction (Homo sapiens, UniProt Q9Y294); assay: Competition assay on GST column (peptide/histone competition in vitro, Western blot); assay type: binding; conditions: peptide 0.1 mM and 1 mM, FIG. 3
T2 construct: The human protein GST-Asf1 1-156 was produced; made in house
Experimental: To do this, GST beads linked to Asf1 were incubated with an excess of histones H3-H4, then washed and incubated with increasing concentrations of peptide. The eluted histones were analyzed by Western blot.
The human protein GST-Asf1 1-156 was produced and then incubated with GST beads (glutathione S transferase, Sigma). For each experiment, 40 μg of recombinant Asf1 fixed to agarose beads were incubated with 400 μg of histones. After washing with 50 mM Tris buffer, pH 8, 150 mM NaCl, 1 mM EDTA, 1 mM DTT, 0.5% NP40, the beads were incubated with different concentrations of peptide (0 to 1 mM) dissolved in the same buffer.

[5] = ITC, 50 mM Tris buffer pH 7.4 at 5° C., Asf1 1-156, read-out: Kd

T1 sequence (Q9Y294 1-156): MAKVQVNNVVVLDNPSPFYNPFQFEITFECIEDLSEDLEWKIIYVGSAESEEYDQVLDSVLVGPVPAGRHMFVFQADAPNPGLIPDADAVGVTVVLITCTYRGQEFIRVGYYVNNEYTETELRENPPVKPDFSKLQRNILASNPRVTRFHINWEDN
T2 sequence (Q9Y294 1-156): as above

| Kd [1, 5] [nM] | Substance | also measured |
| --- | --- | --- |
| – | ASTERKWAELARRIRGAGGRTLNGFG [SEQ ID NO: 77] | affinity for Asf1 compared with peptide i5 [1]: at least as good as that of peptide i5 |
| – | GAMGTIMPKDIQLARRIRG [SEQ ID NO: 70] | Kd ([1]; unit inferred, read-out: affinity for Asf1): 8000 nM |
| – | RRP5-i5mut: mutated version of RRP5-i5 carrying the (RRP)5 sequence, does not bind to Asf1; negative control (RRPRRPRRPRRPRRPASTERKWAEAARRARGAGGVTLNGAGGCA) | toxicity (in words) [2]: no toxicity was seen; binding to Asf1 (in words) [1]: does not bind to Asf1 |
| – | GRKKRRQRRRGAMGTITPKEAQLARRIRGAGGVTLNGFG [SEQ ID NO: 58] | penetration into cells (mean fluorescence) [3]: penetrate more effectively than the penetration sequences alone |
| – | RRPRRPRRPRRPRRPGAMGTITPKEAQLARRIRGAGGVTLNGFG [SEQ ID NO: 59] | penetration into cells (mean fluorescence) [3]: penetrate more effectively than the penetration sequences alone |
| 30 | GAMGTRTPKERRLARRIRGAGGRTLNGFG [SEQ ID NO: 56] | – |
| 350 | GAMGTITPKEAQLARRIRGAGGVTLNGFG [SEQ ID NO: 47] | – |
| 350 | GAMGTLTPKEAELARRIRGAGASRTLNGFG [SEQ ID NO: 43] | – |
| 180 | GAMGTLTPKEAELARRIRGAGGRTLNGFG [SEQ ID NO: 42] | – |
| 30 | GAMGLTAAEHAKRSTLTPKEAQLARRIRGAGGVTLNGFG [SEQ ID NO: 52] | – |
| – | i5mut: control peptide, 90% identity with peptide i5, mutated to alanine on three key residues, no longer binds to Asf1 (ASTERKWAEAARRARGAGGVTLNGAG) [reference compound] | histones bound to or detached from GST-Asf1 beads [4]: the histones remain bound to Asf1; binding to Asf1 (in words) [1]: no longer binds to Asf1; also recorded: does not bind to Asf1 |
| 420 | RRPRRPRRPRRPRRPGAMGTITPKEAQLARRIRGAGGVTLNGFGCA [SEQ ID NO: 50] | – |
| 350 | GAMGTIMPKDIQLARRIRGAGASRTLYGFG [SEQ ID NO: 39] | – |
| 60 | GAMGTLTPKEAELARRIRGAGGVTLNGFG [SEQ ID NO: 48] | – |
| 60 | GAMGRVPPAVRKLGNASTERKWAELARRIRGAGGVTLNGFG [SEQ ID NO: 65] | – |
| – | ASTERKWAELARRIAGAGGVTLNGFG [SEQ ID NO: 79] | affinity for Asf1 compared with peptide i5 [1]: at least as good as that of peptide i5 |
| 420 | GAMGTITPKEEQLRRRIEGAGASVTLNGFG [SEQ ID NO: 46] | – |
